Measurements reported in patent US9241488B2, “Azole derivative, method for producing azole derivative, and intermediate compound” (KUREHA CORPORATION, priority 2011, dated 2016).
Read-outs that look alike come from different tables or passages of the source.

What was measured:
[1] = system: wheat leaf blight-causing microorganisms; test: Anti-bacterial effect on wheat leaf blight-causing microorganisms (PDA plate, mycelial growth inhibition); format: cell-based, Septoria tritici; settings: 1.25 mg/L in PDA plate medium, 25° C., 14 days
[2] = system: Gray mold (Botritis cinerea); test: Anti-bacterial effect on various microorganisms (plate medium), B.c; format: cell-based
[3] = system: wheat-brown-rust-causing microorganisms; test: Controlling effect on wheat brown rust (spray, pot test); format: in vivo, Puccinia recondita; settings: 1 mg/L sprayed at 1,000 L/ha, wheat NORIN No. 61, 9 to 14 days after inoculation
In short: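 Two-leaf wheat (NORIN No. 61) sprayed with formulation at 1 mg/L, 1,000 L/ha, then spray-inoculated with rust spores and held 48 hours at 25° C, high humidity, then greenhouse.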

[4] = system: Wheat Septoria nodorum blotch microorganism (Phaeosphaeria nodorum); test: Anti-bacterial effect on various microorganisms (plate medium), P.n; format: cell-based
[5] = system: Wheat pink snow mold (Microdochium nivale); test: Anti-bacterial effect on various microorganisms (plate medium), M.n; format: cell-based
[6] = system: Rice bacterial seeding blight (Rhizopus oryzae); test: Anti-bacterial effect on various microorganisms (plate medium), R.o; format: cell-based
[7] = system: Rice blast (Pyricularia oryzae); format: cell-based
[8] = system: wheat brown rust-causing microorganisms; test: Controlling effect on wheat brown rust caused by seed treatment (pot test); format: in vivo, Puccinia recondita; settings: 2 mg compound per 1 g wheat seeds, inoculated 21 days after seeding, evaluated 14 days after inoculation
Description: An efficacy against wheat brown rust was evaluated by performing a pot test. […] The pots were kept in a greenhouse with supplying water underneath. Twenty one days after the seeding, wheat brown rust-causing microorganisms was inoculated, and the pots were stored in a humidity chamber for 2 days. The pots were kept again in a greenhouse with supplying water underneath. Fourteen days after the inoculation, a lesion degree was evaluated, and a protective value was calculated. The protective value was calculated with use of the following formula, and was defined as a wheat brown rust protective value. Protective value=(1−lesion degree in treated plot/lesion degree in untreated plot)×100(%)

[9] = system: Barley loose smut (Ustilago nuda); test: Anti-bacterial effect on various microorganisms (plate medium), U.n; format: cell-based
[10] = system: Barley leaf blotch (Rhynchosporium secalis); test: Anti-bacterial effect on various microorganisms (plate medium), R. sec; format: cell-based
[11] = system: Wheat eye spot (Pseudocercoporella herpotrichoides); test: Anti-bacterial effect on various microorganisms (plate medium), P.h; format: cell-based
[12] = system: Rice bakanae disease (Giberella fujikuroi); test: Anti-bacterial effect on various microorganisms (plate medium), G.f; format: cell-based
[13] = system: Wheat fusarium blight (Fusarium graminearum); format: cell-based
[14] = system: Alternaria blotch (Alternaria alternata); test: Anti-bacterial effect on various microorganisms (plate medium), A.m; format: cell-based
[15] = system: Sclerotinia rot (Sclerotinia sclerotiorum); test: Anti-bacterial effect on various microorganisms (plate medium), S.s; format: cell-based
[16] = system: Cucumber fusarium wilt (Fusarium oxysporum); test: Anti-bacterial effect on various microorganisms (plate medium), F.c; format: cell-based

Compound	Growth inhibition grade [1]	Growth inhibition grade B.c ([2]; 1.25 mg/L)	Growth inhibition grade B.c ([2]; 5 mg/L)	Protective value [3]	Growth inhibition grade P.n ([4]; 1.25 mg/L)	Growth inhibition grade P.n ([4]; 5 mg/L)	Growth inhibition grade M.n ([5]; 1.25 mg/L)	Growth inhibition grade M.n ([5]; 5 mg/L)	Growth inhibition grade R.o ([6]; 1.25 mg/L)	Growth inhibition grade R.o ([6]; 5 mg/L)	Growth inhibition grade P.o ([7]; 1.25 mg/L)	Growth inhibition grade P.o ([7]; 5 mg/L)	Growth inhibition grade U.n ([9]; 1.25 mg/L)	Growth inhibition grade U.n ([9]; 5 mg/L)	Growth inhibition grade R. sec ([10]; 1.25 mg/L)	Growth inhibition grade R. sec ([10]; 5 mg/L)	Growth inhibition grade P.h ([11]; 1.25 mg/L)	Growth inhibition grade P.h ([11]; 5 mg/L)	Growth inhibition grade G.f ([12]; 1.25 mg/L)	Growth inhibition grade G.f ([12]; 5 mg/L)	other results
COC[C@]1(CCl)CC[C@@H](Cc2ccc(Cl)cc2)[C@]1(O)Cn1cncn1 (racemic) [Compound I-16a, (1RS,2RS,5SR)-5-(4-chlorobenzyl)-2-chloromethyl-2-methoxymethyl-1H-[1,2,4]triazole-1-ylmethylcyclopentanol]	5 (% Mycerial growth inhibition of 80% or higher)	5 (% Mycerial growth inhibition of 80% or higher)	5 (% Mycerial growth inhibition of 80% or higher)	4 (61 to 80)	5 (% Mycerial growth inhibition of 80% or higher)	5 (% Mycerial growth inhibition of 80% or higher)	5 (% Mycerial growth inhibition of 80% or higher)	5 (% Mycerial growth inhibition of 80% or higher)	5 (% Mycerial growth inhibition of 80% or higher)	5 (% Mycerial growth inhibition of 80% or higher)	5 (% Mycerial growth inhibition of 80% or higher)	5 (% Mycerial growth inhibition of 80% or higher)	5 (% Mycerial growth inhibition of 80% or higher)	5 (% Mycerial growth inhibition of 80% or higher)	5 (% Mycerial growth inhibition of 80% or higher)	5 (% Mycerial growth inhibition of 80% or higher)	4 (% Mycerial growth inhibition of less than 80 to 60% or higher)	5 (% Mycerial growth inhibition of 80% or higher)	5 (% Mycerial growth inhibition of 80% or higher)	5 (% Mycerial growth inhibition of 80% or higher)	wheat brown rust protective value [8]: 100%; Growth inhibition grade F.g ([13]; 1.25 mg/L): 5 (% Mycerial growth inhibition of 80% or higher); Growth inhibition grade F.g ([13]; 5 mg/L): 5 (% Mycerial growth inhibition of 80% or higher); Growth inhibition grade A.m ([14]; 1.25 mg/L): 4 (% Mycerial growth inhibition of less than 80 to 60% or higher); Growth inhibition grade A.m ([14]; 5 mg/L): 5 (% Mycerial growth inhibition of 80% or higher); Growth inhibition grade S.s ([15]; 1.25 mg/L): 5 (% Mycerial growth inhibition of 80% or higher); Growth inhibition grade S.s ([15]; 5 mg/L): 5 (% Mycerial growth inhibition of 80% or higher); Growth inhibition grade F.c ([16]; 1.25 mg/L): 5 (% Mycerial growth inhibition of 80% or higher); Growth inhibition grade F.c ([16]; 5 mg/L): 5 (% Mycerial growth inhibition of 80% or higher)
COC[C@]1(CBr)CC[C@@H](Cc2ccccc2)[C@]1(O)Cn1cncn1 (racemic) [Compound I-203, (1RS,2RS,5SR)-5-benzyl-2-bromomethyl-2-methoxymethyl-1H-[1,2,4]triazole-1-ylmethylcyclopentanol]	4 (% Mycerial growth inhibition of less than 80 to 60% or higher)	5 (% Mycerial growth inhibition of 80% or higher)	5 (% Mycerial growth inhibition of 80% or higher)	4 (61 to 80)	4 (% Mycerial growth inhibition of less than 80 to 60% or higher)	5 (% Mycerial growth inhibition of 80% or higher)	5 (% Mycerial growth inhibition of 80% or higher)	5 (% Mycerial growth inhibition of 80% or higher)	4 (% Mycerial growth inhibition of less than 80 to 60% or higher)	5 (% Mycerial growth inhibition of 80% or higher)	5 (% Mycerial growth inhibition of 80% or higher)	5 (% Mycerial growth inhibition of 80% or higher)	5 (% Mycerial growth inhibition of 80% or higher)	5 (% Mycerial growth inhibition of 80% or higher)	5 (% Mycerial growth inhibition of 80% or higher)	5 (% Mycerial growth inhibition of 80% or higher)	4 (% Mycerial growth inhibition of less than 80 to 60% or higher)	5 (% Mycerial growth inhibition of 80% or higher)	5 (% Mycerial growth inhibition of 80% or higher)	5 (% Mycerial growth inhibition of 80% or higher)	Growth inhibition grade F.g ([13]; 1.25 mg/L): 5 (% Mycerial growth inhibition of 80% or higher); Growth inhibition grade F.g ([13]; 5 mg/L): 5 (% Mycerial growth inhibition of 80% or higher); Growth inhibition grade A.m ([14]; 1.25 mg/L): 4 (% Mycerial growth inhibition of less than 80 to 60% or higher); Growth inhibition grade A.m ([14]; 5 mg/L): 5 (% Mycerial growth inhibition of 80% or higher); Growth inhibition grade S.s ([15]; 1.25 mg/L): 5 (% Mycerial growth inhibition of 80% or higher); Growth inhibition grade S.s ([15]; 5 mg/L): 5 (% Mycerial growth inhibition of 80% or higher); Growth inhibition grade F.c ([16]; 1.25 mg/L): 5 (% Mycerial growth inhibition of 80% or higher); Growth inhibition grade F.c ([16]; 5 mg/L): 5 (% Mycerial growth inhibition of 80% or higher)
COC[C@]1(CBr)CC[C@@H](Cc2ccc(F)cc2)[C@]1(O)Cn1cncn1 (racemic) [Compound I-198, (1RS,2RS,5SR)-5-(4-fluorobenzyl)-2-bromomethyl-2-methoxymethyl-1H-[1,2,4]triazole-1-ylmethylcyclopentanol]	5 (% Mycerial growth inhibition of 80% or higher)	5 (% Mycerial growth inhibition of 80% or higher)	5 (% Mycerial growth inhibition of 80% or higher)	4 (61 to 80)	4 (% Mycerial growth inhibition of less than 80 to 60% or higher)	5 (% Mycerial growth inhibition of 80% or higher)	4 (% Mycerial growth inhibition of less than 80 to 60% or higher)	5 (% Mycerial growth inhibition of 80% or higher)	5 (% Mycerial growth inhibition of 80% or higher)	5 (% Mycerial growth inhibition of 80% or higher)	5 (% Mycerial growth inhibition of 80% or higher)	5 (% Mycerial growth inhibition of 80% or higher)	4 (% Mycerial growth inhibition of less than 80 to 60% or higher)	5 (% Mycerial growth inhibition of 80% or higher)	5 (% Mycerial growth inhibition of 80% or higher)	5 (% Mycerial growth inhibition of 80% or higher)	4 (% Mycerial growth inhibition of less than 80 to 60% or higher)	5 (% Mycerial growth inhibition of 80% or higher)	5 (% Mycerial growth inhibition of 80% or higher)	5 (% Mycerial growth inhibition of 80% or higher)	Growth inhibition grade F.g ([13]; 1.25 mg/L): 4 (% Mycerial growth inhibition of less than 80 to 60% or higher); Growth inhibition grade F.g ([13]; 5 mg/L): 5 (% Mycerial growth inhibition of 80% or higher); Growth inhibition grade A.m ([14]; 1.25 mg/L): 4 (% Mycerial growth inhibition of less than 80 to 60% or higher); Growth inhibition grade A.m ([14]; 5 mg/L): 5 (% Mycerial growth inhibition of 80% or higher); Growth inhibition grade S.s ([15]; 1.25 mg/L): 5 (% Mycerial growth inhibition of 80% or higher); Growth inhibition grade S.s ([15]; 5 mg/L): 5 (% Mycerial growth inhibition of 80% or higher); Growth inhibition grade F.c ([16]; 1.25 mg/L): 5 (% Mycerial growth inhibition of 80% or higher); Growth inhibition grade F.c ([16]; 5 mg/L): 5 (% Mycerial growth inhibition of 80% or higher)
